Measurements from US9198916B1, “Compounds and methods for treating tumors” (B&G Partners, LLC, priority 2014, dated 2015).
Read-outs that look alike come from different tables or passages of the source.

Experiments:
[1] = biological target: hERG (human ether-à-go-go-related gene) potassium channel current (Homo sapiens, UniProt Q12809); experiment: cell-based
Protocol: All chemicals used in solution preparation were purchased from Sigma-Aldrich (St. Louis, Mo.) unless otherwise noted and were of ACS reagent grade purity or higher.
The duration of exposure to each test article concentration was 3 minutes.

[2] = Repeated dose intraperitoneal (IP) BID study in mice, plasma concentration by LC-MS/MS and PK fit; parameters: species or system female CD-1 mice; settings: female, CD-1, mouse, in vivo, fitted, repeated-dose single-compartment first-order absorption model, 10 mg/kg IP BID; for half-life: ip, 10 mg/kg
Protocol: A total of 204.47 mg of the compound of Example 1 was weighed out in a sterile vial on an analytical balance, and a 10.22 ml volume of sterile DMSO containing 5% by volume sterile Tween 80 was added to the vial under a Class II sterile hood and mixed until fully dissolved to produce a 20 mg/ml stock solution of the compound of Example 1. The stock solution was split into 1.2 ml aliquots in sterile glass vials and stored frozen at −80° C.
Sterile 1.0 mg/ml injection solution of the compound of Example 1 was formulated in normal saline containing 4.75% DMSO and 0.25% Tween 80. A visible precipitate formed without the addition of at least 0.1% Tween 80. The injection solution was prepared by thawing one aliquot of sterile 20 mg/ml stock solution, and adding 0.526 cc of stock solution to a 10 ml sterile vial of USP 0.9% sodium chloride for injection (Hospira) to yield the desired concentrations of 1.0 mg/ml o the compound of Example 1, 4.75% DMSO, and 0.25% Tween 80. The injection solution was gently mixed until fully dissolved. […] Injection solution was stored at 4° C. for up to five days after preparation, after which it was considered expired and discarded.
A total of 16 female CD-1 mice with an age of approximately 8-10 weeks (25-30 g) were used in this repeated dosing study. Each animal was weighed on the days 1, 4, 8, 11, and 15 during treatment. A 10 mg/kg dose of the compound of Example 1 was provided by IP injection of 10 ml/kg of 1.0 mg/ml injection solution to each animal every 12.0±0.5 hr. The injection solution was removed from the refrigerator and allowed to warm at room temperature for several minutes. The septum of the injection solution was wiped with sterile alcohol, and animals received 10 ml/kg by individual insulin syringes (one syringe per animal per injection), with the injection volume calculated using the most recent weighing for each individual animal. IP injections were staggered between the left and right side of the abdomen from one dosing to the next. […] The injection solution was returned to refrigerated storage after the last animal. […]

Sequence of hERG (human ether-à-go-go-related gene) potassium channel current (Q12809 whole entry): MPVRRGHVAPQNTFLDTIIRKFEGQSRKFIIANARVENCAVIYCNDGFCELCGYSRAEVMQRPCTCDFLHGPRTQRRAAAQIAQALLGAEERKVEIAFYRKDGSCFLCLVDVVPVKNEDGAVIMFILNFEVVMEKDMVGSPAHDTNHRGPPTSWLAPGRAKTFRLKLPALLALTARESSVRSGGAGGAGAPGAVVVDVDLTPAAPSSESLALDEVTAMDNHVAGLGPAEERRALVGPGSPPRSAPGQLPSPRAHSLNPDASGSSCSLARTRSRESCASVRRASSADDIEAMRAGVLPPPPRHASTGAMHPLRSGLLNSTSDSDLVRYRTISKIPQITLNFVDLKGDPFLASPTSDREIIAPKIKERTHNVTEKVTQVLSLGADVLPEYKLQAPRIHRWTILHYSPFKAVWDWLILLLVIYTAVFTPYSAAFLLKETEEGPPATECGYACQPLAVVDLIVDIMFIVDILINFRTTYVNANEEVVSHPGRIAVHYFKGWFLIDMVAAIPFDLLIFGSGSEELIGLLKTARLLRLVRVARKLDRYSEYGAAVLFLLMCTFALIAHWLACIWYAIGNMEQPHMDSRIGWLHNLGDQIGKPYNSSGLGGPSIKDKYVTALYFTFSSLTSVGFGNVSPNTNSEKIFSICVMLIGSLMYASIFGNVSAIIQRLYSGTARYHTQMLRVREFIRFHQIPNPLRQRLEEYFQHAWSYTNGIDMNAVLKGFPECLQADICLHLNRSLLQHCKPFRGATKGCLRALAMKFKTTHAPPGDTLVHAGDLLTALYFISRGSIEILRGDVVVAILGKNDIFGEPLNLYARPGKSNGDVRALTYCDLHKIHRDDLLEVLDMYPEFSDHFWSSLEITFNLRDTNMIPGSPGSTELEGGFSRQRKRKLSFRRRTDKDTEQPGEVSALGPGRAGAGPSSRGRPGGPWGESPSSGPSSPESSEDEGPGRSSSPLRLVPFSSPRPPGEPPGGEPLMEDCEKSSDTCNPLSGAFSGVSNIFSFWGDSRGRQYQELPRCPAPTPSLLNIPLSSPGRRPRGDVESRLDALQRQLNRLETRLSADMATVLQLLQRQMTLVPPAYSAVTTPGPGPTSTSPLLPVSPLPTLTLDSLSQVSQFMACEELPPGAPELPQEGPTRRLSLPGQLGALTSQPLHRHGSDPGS

CSc1ccc2c(c1)N(CCC1CCCCN1)c1ccccc1S2.Cl (stereo not shown) [Example 1, 2-(methylsulfanyl)-10-[2-(piperidin-2-yl)ethyl]-10H-phenothiazine hydrochloride]
IC50 [1]: 1550 nM
Vd/F ([2]; read-out: apparent volume of distribution (V/F)): 8 L/kg
half-life ([2]; read-out: absorption half-life (converted)): 0.48 h
half-life ([2]; read-out: elimination half-life (converted)): 14.7 h
